Test results reported in patent US7365055B2, “Derivatives of morphine-6-glucuronide, pharmaceutical compositions containing them, their preparation method and their uses” (BTG International Limited, priority 2003, dated 2008).
Read-outs that look alike come from different tables or passages of the source.

Assays:
opioid receptors = settings: background statement; cited from earlier work
mouse = assay: tail flick test (analgesic effect); type: in vivo; settings: mice, intravenous route
μ receptors = biological target: T1, μ receptors (Rattus norvegicus, UniProt P33535); assay: affinity to the μ receptors, [3H]DAMGO binding, rat cerebral cortex membrane homogenates
T1 construct: homogenates of rat cerebral cortex membrane; from tissue; host or cells: rat cerebral cortex membrane homogenate
T1 sequence (P33535 whole entry): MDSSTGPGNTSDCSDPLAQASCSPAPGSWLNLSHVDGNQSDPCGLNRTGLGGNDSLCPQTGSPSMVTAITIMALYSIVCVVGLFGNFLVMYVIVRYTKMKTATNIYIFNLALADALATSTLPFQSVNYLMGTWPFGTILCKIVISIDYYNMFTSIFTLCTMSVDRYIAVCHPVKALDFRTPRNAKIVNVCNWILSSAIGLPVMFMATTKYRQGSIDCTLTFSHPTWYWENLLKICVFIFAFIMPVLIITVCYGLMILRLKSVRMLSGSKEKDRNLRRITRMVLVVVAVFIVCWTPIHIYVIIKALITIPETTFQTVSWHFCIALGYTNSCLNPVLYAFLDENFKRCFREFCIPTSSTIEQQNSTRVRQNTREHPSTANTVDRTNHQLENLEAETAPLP
Protocol: (§1) The affinity of M6G and of morphine was compared to that of the M6G derivatives according to the invention for the opioid receptors μ (mu) and κ (kappa).
(§2) The non-specific binding was determined by means of the addition to the labelled ligands of naloxone 10 μM.
(§3) After incubation, the samples were filtered on glass fibres (GF/B, Packard) previously incubated with 0.3% polyethyleneimine and rinsed several times with 50 mM of cold Tris-HCl using a “96-sample cell harvester” (Unifilter, Packard). The filters were then dried and the radioactivity counted.

κ receptors = biological target: T2, κ receptors (Cavia porcellus, UniProt P41144); assay: affinity to the κ receptors, [3H]U 69593 binding, guinea-pig cerebellum membrane homogenates; settings: 0.7 nM [3H]U 69593, 80 minutes at 22° C.
T2 construct: homogenates of guinea-pig cerebellum membrane; from tissue; host or cells: guinea-pig cerebellum membrane homogenate
T2 sequence (P41144 whole entry): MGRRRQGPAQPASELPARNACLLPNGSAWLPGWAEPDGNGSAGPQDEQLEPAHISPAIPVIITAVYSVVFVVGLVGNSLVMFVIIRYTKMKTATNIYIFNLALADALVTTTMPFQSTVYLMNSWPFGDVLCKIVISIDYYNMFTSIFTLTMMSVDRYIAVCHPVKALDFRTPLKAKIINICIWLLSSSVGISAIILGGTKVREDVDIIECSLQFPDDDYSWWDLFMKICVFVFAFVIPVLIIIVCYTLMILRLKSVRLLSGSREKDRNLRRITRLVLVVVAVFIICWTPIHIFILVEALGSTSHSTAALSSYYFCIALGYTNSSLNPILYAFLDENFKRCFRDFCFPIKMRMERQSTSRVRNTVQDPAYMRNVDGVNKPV
Protocol: as §1
Concentrations of M6G, morphine and the compound according to the invention of 10^−14 to 10^−6 M were used.
as §2, §3

[1] = Affinity to the K receptors (Ki)

Compound	duration of the action (analgesic activity) (mouse)	Ki (μ receptors) [nM]	Ki (κ receptors; [1]) [nM]	also measured
CN1CC[C@]23c4c5ccc(O[C@@H]6O[C@H](C(=O)O)[C@@H](O)[C@H](O)[C@H]6O)c4O[C@H]2[C@@H](O)C=C[C@H]3[C@H]1C5 [Example M3G, morphine-3-glucuronide]				affinity for the opioid receptors (opioid receptors): no affinity
CN1CCC23c4c5ccc(O)c4OC2C(OC2OC(C(=O)O)C(O)C(O)C2O)C=CC3C1C5 (stereo not drawn) [Example M6G, morphine-6-glucuronide]	approximately 100 minutes	13.6	224	ED50, the dose which induces 50% of the analgesic effect (mouse): 0.55 mg eq./kg; affinity for the opioid receptors (opioid receptors): high affinity
CCN(CC)C(=O)C(CS)NC(=O)C1OC(OC2C=CC3C4Cc5ccc(O)c6c5C3(CCN4C)C2O6)C(O)C(O)C1O (stereo not drawn) [Example M6G-Cys-DEA, M6G-Cys-DEA]		0.36	1.9	
CCOC(=O)C(CS)NC(=O)C1OC(OC2C=CC3C4Cc5ccc(O)c6c5C3(CCN4C)C2O6)C(O)C(O)C1O (stereo not drawn) [Example M6G-Cys-OEt, M6G-Cys-OEt]		1.17	11.2	
COC(=O)C(CS)NC(=O)C1OC(OC2C=CC3C4Cc5ccc(O)c6c5C3(CCN4C)C2O6)C(O)C(O)C1O (stereo not drawn) [Example M6G-Cys-OMe, M6G-Cys-OMe]		1.04	14	
CN1CC[C@]23c4c5ccc(O)c4O[C@H]2[C@@H](O[C@@H]2O[C@H](C(=O)NCCSSCCNC(=O)[C@H]4O[C@@H](O[C@H]6C=CC7[C@H]8Cc9ccc(O)c%10c9[C@@]7(CCN8C)[C@H]6O%10)[C@H](O)[C@@H](O)[C@@H]4O)[C@@H](O)[C@H](O)[C@H]2O)C=CC3[C@H]1C5 (stereo partly drawn) [M6G-Cya-Cya-M6G]	360 min	0.38	6.22	
CN1CC[C@]23c4c5ccc(O)c4O[C@H]2[C@@H](O[C@@H]2OC(C(=O)NCCS)[C@@H](O)C(O)C2O)C=CC3[C@H]1C5 (stereo partly drawn) [M6G-cysteamide]		2.35	4.49	
CN1CC[C@]23c4c5ccc(O)c4O[C@H]2[C@@H](O)C=C[C@H]3[C@H]1C5 [Morphine]	approximately 100 minutes			ED50, the dose which induces 50% of the analgesic effect (mouse): 2.65 mg eq./kg
M6G-Cya-Cya-PEG20000 [M6G-Cya-Cya-PEG200000]				Ki (μ receptors; rat cerebral cortex membrane, 1 nM [3H]DAMGO, 60 minutes at 22° C., read-out: Affinity to the μ receptors (Ki)): 0.92 nM; Ki (κ receptors; read-out: Affinity to the K receptors (Ki)): 0.72 nM
